The values below come from ChEMBL document CHEMBL3792322, “Metabolic investigation on ZL006 for the discovery of a potent prodrug for the treatment of cerebral ischemia” (Bioorg Med Chem Lett, 2016).

The structures appear in SMILES notation. The source made the active and inactive calls. The rule behind the calls is not given here.

The test system of one series is Plasma. The series is described as follows: Metabolic stability in mouse plasma at 20 mg/kg, iv measured 15 to 30 mins post dosing by HPLC-MS/MS method. In kind it is ADME, organism-based. The settings on record: in vivo.
Series [1] has as its system Mus musculus. The series is described as follows: Protective activity in BCCAO-induced mouse acute cerebral ischemia model assessed as prolonged surviving time at 4 mg/kg, iv measured 1 hr post dose. In kind it is functional, organism-based.
Series [2] deals with Brain. The series is described as follows: Drug metabolism in mouse brain assessed as ZL006 formation at 20 mg/kg, iv measured 15 to 30 mins post dosing by HPLC-MS/MS method. Type of series: ADME, organism-based. The settings on record: in vivo.
Series [3] relates to Brain. The series is described as follows: Drug uptake in mouse brain at 20 mg/kg, iv measured 15 to 30 mins post dosing by HPLC-MS/MS method. The settings on record: in vivo. In kind it is ADME, organism-based.
For series [4], the system named is Mus musculus. The series is described as follows: Protective activity in BCCAO-induced mouse acute cerebral ischemia model assessed as prolonged surviving time at 4 mg/kg, iv measured 4 hrs post dose. In kind it is functional, organism-based.
Series [5] relates to Rattus norvegicus. Kind of series: Protective activity in MCAO-induced rat focal cerebral ischemia model assessed as reduction in infarct size at 2 mg/kg, iv administered 1 hr post reperfusion measured after 24 hrs by TTC-staining based analysis. In kind it is functional, organism-based.
For series [6], the system named is Rattus norvegicus. Kind of series: Protective activity in MCAO-induced rat focal cerebral ischemia model assessed as reduction in infarct size at 1 mg/kg, iv administered 1 hr post reperfusion measured after 24 hrs by TTC-staining based analysis. In kind it is functional, organism-based.
Series [7] relates to Rattus norvegicus. Kind of series: Protective activity in iv dosed MCAO-induced rat focal cerebral ischemia model assessed as reduction in infarct size treated at 1 hr post reperfusion measured after 24 hrs by TTC-staining based analysis. In kind it is functional, organism-based.

On to `COC(=O)c1ccc(NCc2cc(Cl)cc(Cl)c2O)cc1O`, for which, in the series on Plasma, the Stability entry is recorded as “Stable”. Besides, in the series on Mus musculus [1], the result was Active. The Drug metabolism result in the series on Brain [2] is given as “metabolite_detected”.
Regarding `CN(Cc1cc(Cl)cc(Cl)c1O)c1ccc(C(=O)O)c(O)c1`, in the series with Brain [3], the Drug uptake result is “Not Active”. Besides, the Drug metabolism entry in the series on Brain [2] was “metabolite_notdetected”.
Regarding `CCOC(=O)c1ccc(NCc2cc(Cl)cc(Cl)c2O)cc1O`, the Stability result in the series on Plasma was “Stable”. Moreover, the outcome in the series with Mus musculus [4] and in the series with Mus musculus [1] was Active. In the series on Brain [2], the Drug metabolism entry is listed as “metabolite_detected”.
On to `O=C(OC1CCCCC1)c1ccc(NCc2cc(Cl)cc(Cl)c2O)cc1O`, for which the outcome with Rattus norvegicus [5] was inactive. Further, the Stability result with Plasma is recorded as “Stable”. The result in the series with Rattus norvegicus [6], with Mus musculus [4] and with Mus musculus [1] was Active. For the same compound, the Activity entry in the series with Rattus norvegicus [7] is “Dose-dependent effect”. In addition, the Drug metabolism entry in the series with Brain [2] was “metabolite_detected”.
`COc1c(Cl)cc(Cl)cc1CNc1ccc(C(=O)O)c(O)c1`: the Drug metabolism result in the series on Brain [2] was “metabolite_notdetected”.
In the case of `COc1cc(NCc2cc(Cl)cc(Cl)c2O)ccc1C(=O)O`, in the series with Brain [3], the Drug uptake entry is listed as “Not Active”. Moreover, the Stability entry in the series on Plasma is reported as “Unstable”. In addition, the Drug metabolism result in the series with Brain [2] was “metabolite_notdetected”.
